Experimental data from patent US20160022620A1, “ENCAPSULATED COMPOSITION FOR BINDING ALDEHYDES IN THE STOMACH” (BIOHIT OYJ, priority 2013, published 2016).

Assay: Dissolution test for the capsules (USP I method, pH 1.2 HCl buffer)
Format: physicochemical
Settings: not granulated; in 5 minutes
Description: Dissolution tests were carried out on the capsules of Example 1 according to the USP I method (USP 24) (The United States Pharmacopeia 2001). A standard curve was prepared between 0.01 and 0.6 mg/ml ([…], r^2=0.9999). The medium used was 500 ml of pH 1.2 HCl buffer. The rotation rate of the baskets was 100 rpm, and the temperature of the medium was +37° C. (±0.5). Samples were taken at 5-minute intervals for the first half hour and thereafter at 10-minute intervals for the remaining 2 hours. L-cysteine was detected in flow-through cells (10 mm) at a wavelength of 213 nm. The results were calculated by using dissolution software. The system was equipped with a bath and a pump (Sotax AT7 UV Dissolution System, Stax, Allschwil, Switzerland) and a spectrophotometer (PerkinElmer, Lambda 25, PerkinElmer, Inc., Waltham, Mass.), the software used for the test and for calculating the results was WinSotax (Sotax). […] When not granulated, the L-cysteine was dissolved rapidly (100% in 5 minutes).

**Q.** With `N[C@@H](CS)C(=O)O` [L-cysteine] as the molecule, how does the L-cysteine dissolved read?
**A.** 100%
